Reference: publication PMC10825133, “Repurposing proteasome inhibitors for improved treatment of triple-negative breast cancer” (Cell Death Discovery, 2024)
Read-outs that look alike come from different tables or passages of the source.

How the values were obtained:
[1] = test system: CAL-148 cells; experiment: Resazurin-based cell viability assay, monotherapy drug screen; set-up: species or system human; AUC: unit not given beside the values; settings: CAL-148
[2] = test system: eight TNBC cell lines (BT-549, CAL-148, HCC1806, HCC38, HCC70, MDA-MB-436, MDA-MB-453, MDA-MB-468); experiment: Monotherapy drug screen, mean across the TNBC cell lines; settings: TNBC cell lines
Outline: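 Cells seeded at 4.0 × 10^3–7.5 × 10^3/well, grown 24 h, then drug-treated 24 h with matched solvent-vehicle controls per concentration; resazurin absorbance read-out, viability normalised to vehicle after background subtraction, t = 0 untreated cells for GR. AUC, IC50, GR50, GRmax via GRmetrics; combinations predicted by IDACombo, synergy scored with SynergyFinder.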

[3] = test system: HCC70 cells; experiment: Resazurin-based cell viability assay, monotherapy drug screen; set-up: species or system human; AUC: scale not given here; settings: HCC70
Outline: (§1)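 Cells were seeded at the highest density (tested 1000-16000 cells/well) giving linear growth between days 1 and 3, keeping them in exponential phase over the ~52 h experiment. Viability was read after 4 h at 37 °C with 0.2 mg/ml resazurin added at 10% of medium volume; ex 560/em 615 nm.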

[4] = test system: MCF-7 cells; experiment: as above; set-up: species or system human; AUC: scale not given here; settings: MCF-7
Outline: as §1

[5] = test system: BT-549 cells; experiment: as above; set-up: species or system human; AUC: scale not given here; settings: BT-549
Outline: as §1

[6] = test system: MDA-MB-468 cells; experiment: as above; set-up: species or system human; AUC: scale not given here; settings: MDA-MB-468
Outline: as §1

[7] = test system: HCC1806 cells; experiment: as above; set-up: species or system human; AUC: scale not given here; settings: HCC1806
Outline: as §1

[8] = test system: MCF-10A cells; experiment: as above; set-up: species or system human; AUC: scale not given here
Outline: as §1

[9] = test system: HCC38 cells; experiment: as above; set-up: species or system human; AUC: scale not given here; settings: HCC38
Outline: as §1

[10] = 24 h drug treatment, read-out: IC50
[11] = area under the dose response curve, 24 h
[12] = drug efficacy at highest tested dose (<0 cytotoxic, 0 cytostatic, >0 partial growth inhibition)
[13] = growth rate inhibition concentration at GR(c) = 0.5, 24 h, read-out: GR50 (the source's name)

For `[NH2][Pt]1([NH2])[O]CC(=O)[O]1` [Nedaplatin], the IC50 [1, 10] was 320 nM, the AUC [1, 11] was 0.78 and the GRmax [1, 12] was −0.93. The IC50 [1, 13] was 210 nM, the “area under the dose response curve (AUC), mean ± SD” value ([2]; 24 h) was 0.68 ± 0.10 and the “cytotoxic effect at the highest dose” value ([2]; by GRmax) was “cytotoxic”. It also gave an IC50 [3, 10] of 46 nM, an AUC [3, 11] of 0.50 and a GRmax [3, 12] of −0.83. The IC50 [3, 13] was 300 nM, the AUC [4, 11] was 0.82 and the GRmax [4, 12] was −0.57. The IC50 [4, 13] was 75 nM, the IC50 [5, 10] was 150 nM and the AUC [5, 11] was 0.66. For the same molecule, the GRmax [5, 12] was −0.02, the IC50 [5, 13] was 81 nM and the IC50 [6, 10] was 67 nM. It also gave an AUC [6, 11] of 0.61, a GRmax [6, 12] of −0.38 and an IC50 [7, 10] of 150 nM. It also gave an AUC [7, 11] of 0.66, a GRmax [7, 12] of −0.38 and an IC50 [7, 13] of 120 nM. The IC50 [8, 10] was 75 nM, the AUC [8, 11] was 0.57 and the GRmax [8, 12] was −0.40. For the same molecule, the IC50 [8, 13] was 74 nM, the IC50 [9, 10] was 93 nM and the AUC [9, 11] was 0.62. The GRmax [9, 12] was −0.58 and the IC50 [9, 13] was 54 nM.
